Test results reported in ChEMBL document CHEMBL5223186, “Agrochemical Lessons for Infectious Disease Research: New Resistance Breaking Antifungal Hits against Candida auris” (ACS Med Chem Lett, 2023).
Converted amounts (≈) assume the structure as drawn.

Experiments:
[Candida] auris [1] = Antifungal activity against Candida auris CDC0381 assessed as lowest compound concentration required to inhibit 50 % growth; format: functional, Candidozyma auris
[Candida] auris [2] = Antifungal activity against Candida auris CDC0381 assessed as lowest compound concentration required to inhibit 90 % growth; format: functional, Candidozyma auris
[Candida] auris [3] = Antifungal activity against Candida auris CDC0381 assessed as growth inhibition; format: functional, organism-based; conditions: Candidozyma auris
[Candida] auris [4] = Antifungal activity against Candida auris CDC0385 assessed as lowest compound concentration required to inhibit 50 % growth; format: functional, Candidozyma auris
[Candida] auris [5] = Antifungal activity against Candida auris CDC0385 assessed as lowest compound concentration required to inhibit 90 % growth; format: functional, Candidozyma auris
[Candida] auris [6] = Antifungal activity against Candida auris CDC0385 assessed as growth inhibition; format: functional, organism-based; conditions: Candidozyma auris
[Candida] auris [7] = Antifungal activity against Candida auris ATCC 6258 assessed as lowest compound concentration required to inhibit 50 % growth; format: functional, Candidozyma auris
[Candida] auris [8] = Antifungal activity against Candida auris ATCC 6258 assessed as lowest compound concentration required to inhibit 90 % growth; format: functional, Candidozyma auris
[Candida] auris [9] = Antifungal activity against Candida auris ATCC 6258 assessed as growth inhibition; format: functional, organism-based; conditions: Candidozyma auris
[10] = Cytotoxicity against human HepG2 cells assessed as growth inhibition by XTT assay; format: toxicity, cell-based
[11] = Selectivity index, ratio of IC50 for cytotoxicity against human HepG2 cells to IC50 for antifungal activity against Candida auris CDC0385; format: toxicity, cell-based; conditions: read-out: Ratio IC50

| Structure (SMILES) | INH ([Candida] auris [1]) [µg/mL] | INH ([Candida] auris [2]) [µg/mL] | IC50 ([Candida] auris [3]) [µg/mL] | IC90 ([Candida] auris [3]) [µg/mL] | INH ([Candida] auris [4]) [µg/mL] | INH ([Candida] auris [5]) [µg/mL] | IC50 ([Candida] auris [6]) [µg/mL] | IC90 ([Candida] auris [6]) [µg/mL] | INH ([Candida] auris [7]) [µg/mL] | INH ([Candida] auris [8]) [µg/mL] | IC50 ([Candida] auris [9]) [µg/mL] | IC90 ([Candida] auris [9]) [µg/mL] | IC50 [10] [µM] | selectivity ratio [11] |
| --- | --- | --- | --- | --- | --- | --- | --- | --- | --- | --- | --- | --- | --- | --- |
| CCCCCn1nc(-c2ccc(Cl)cc2)cnc1=O | 1 | 4 | 0.72 (≈ 2.59 µM) | 1.59 (≈ 5.72 µM) | 2 | 4 | 1.8 (≈ 6.48 µM) | 3.64 (≈ 13.1 µM) | 1 | 2 | 0.76 (≈ 2.74 µM) | 1.05 (≈ 3.78 µM) | 2.07 | 1.5 |
| Clc1cc2c(c3ncccc13)OCN(CCc1ccccc1)C2 | 4 | 4 | 2 (≈ 6.16 µM) | 2.13 (≈ 6.56 µM) | 4 | 4 | 2.14 (≈ 6.59 µM) | 3.88 (≈ 11.9 µM) | 2 | 4 | 1.98 (≈ 6.1 µM) | 2.2 (≈ 6.77 µM) | 22.7 | 10.6 |
| C1CCC(C(CC2CCCCN2)C2CCCCC2)CC1 (stereo not given) [PERHEXILINE] | – | – | – | – | – | – | – | – | – | – | – | – | 11.3 | – |
| COCc1ncnc(NC(C)CC#Cc2ccc(Oc3ccc(C(F)(F)F)cn3)cc2)c1OC (stereo not given) | <0.125 | 1 | – | – | 0.5 | 8 | 0.45 (≈ 0.952 µM) | 4.61 (≈ 9.76 µM) | >64 | >64 | – | – | > 100 | > 222 |
| C[C@@H](c1ncncc1F)[C@](O)(Cn1cncn1)c1ccc(F)cc1F [VORICONAZOLE] | 0.016 | 4 | 0.01 (≈ 0.0286 µM) | 0.55 (≈ 1.57 µM) | 4 | >4 | 2.94 (≈ 8.42 µM) | > 4 | 0.25 | 1 | 0.2 (≈ 0.573 µM) | 0.76 (≈ 2.18 µM) | – | – |
| Fc1ccc2[nH]cc(-c3ccsc3Br)c2c1 | 16 | 16 | 9.85 (≈ 33.3 µM) | 15.7 (≈ 53 µM) | 32 | >64 | 29.3 (≈ 98.9 µM) | > 64 | 64 | >64 | 32.2 (≈ 109 µM) | > 64 | > 100 | > 3.41 |
| NC1CCCc2ccc(C3=NSC(c4cc(Cl)c(F)c(Cl)c4)(C(F)(F)F)C3)cc21 (stereo not given) | 2 | 2 | 1.43 (≈ 3.09 µM) | 1.71 (≈ 3.69 µM) | 4 | 4 | 2.09 (≈ 4.51 µM) | 2.3 (≈ 4.96 µM) | 4 | 4 | 2.11 (≈ 4.55 µM) | 2.62 (≈ 5.65 µM) | 13.2 | 6.29 |
| Cc1cc(Nc2ccccc2C)n(-c2nc(=O)cc(C)[nH]2)n1 | 1 | 4 | 0.85 (≈ 2.88 µM) | 1.93 (≈ 6.53 µM) | 2 | 8 | 1.45 (≈ 4.91 µM) | 6.05 (≈ 20.5 µM) | 2 | 4 | 1.42 (≈ 4.81 µM) | 2.38 (≈ 8.06 µM) | > 100 | > 69 |
| C[C@@H]1[C@H](O)[C@@H](C)/C=C/C=C/C=C/C=C/C=C/C=C/C=C/[C@H](O[C@@H]2O[C@H](C)[C@@H](O)[C@H](N)[C@@H]2O)C[C@@H]2O[C@](O)(C[C@@H](O)C[C@@H](O)[C@H](O)CC[C@@H](O)C[C@@H](O)CC(=O)O[C@H]1C)C[C@H](O)[C@H]2C(=O)O [AMPHOTERICIN B] | 0.25 | 0.5 | 0.2 (≈ 0.216 µM) | 0.39 (≈ 0.422 µM) | 1 | 1 | 0.54 (≈ 0.584 µM) | 0.83 (≈ 0.898 µM) | 0.5 | 1 | 0.49 (≈ 0.53 µM) | 0.54 (≈ 0.584 µM) | – | – |
